How the values were obtained:
[1] = molecular target: Cyclin-dependent kinase 5/CDK5 activator 1 (Homo sapiens, UniProt Q00535); type: cell-based, Sf9
[2] = molecular target: Dual specificity protein kinase CLK1 (Homo sapiens, UniProt P49759); type: cell-based, Sf9
[3] = molecular target: Dual specificity protein kinase CLK2 (Homo sapiens, UniProt P49760)
[4] = molecular target: Dual specificity protein kinase CLK3 (Homo sapiens, UniProt P49761); type: cell-based, Sf9
[5] = molecular target: Dual specificity protein kinase CLK4 (Homo sapiens, UniProt Q9HAZ1)
Chain of Dual specificity protein kinase CLK4 (Q9HAZ1 whole entry): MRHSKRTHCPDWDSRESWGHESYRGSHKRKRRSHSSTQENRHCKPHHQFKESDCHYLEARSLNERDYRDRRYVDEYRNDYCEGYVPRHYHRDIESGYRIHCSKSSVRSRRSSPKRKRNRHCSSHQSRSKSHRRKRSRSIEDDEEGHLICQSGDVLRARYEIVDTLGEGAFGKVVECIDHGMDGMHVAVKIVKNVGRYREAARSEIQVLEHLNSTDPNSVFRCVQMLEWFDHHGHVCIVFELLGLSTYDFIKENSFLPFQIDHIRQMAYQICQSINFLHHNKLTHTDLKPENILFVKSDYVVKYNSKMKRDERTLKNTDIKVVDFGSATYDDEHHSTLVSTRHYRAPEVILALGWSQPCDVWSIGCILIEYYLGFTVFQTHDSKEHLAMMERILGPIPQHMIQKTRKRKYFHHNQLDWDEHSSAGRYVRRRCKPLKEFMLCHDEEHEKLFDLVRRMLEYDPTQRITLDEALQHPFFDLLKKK

[6] = molecular target: T1, Dual specificity tyrosine-phosphorylation-regulated kinase 2 (Homo sapiens, UniProt Q92630)
T1 sequence (Q92630 whole entry): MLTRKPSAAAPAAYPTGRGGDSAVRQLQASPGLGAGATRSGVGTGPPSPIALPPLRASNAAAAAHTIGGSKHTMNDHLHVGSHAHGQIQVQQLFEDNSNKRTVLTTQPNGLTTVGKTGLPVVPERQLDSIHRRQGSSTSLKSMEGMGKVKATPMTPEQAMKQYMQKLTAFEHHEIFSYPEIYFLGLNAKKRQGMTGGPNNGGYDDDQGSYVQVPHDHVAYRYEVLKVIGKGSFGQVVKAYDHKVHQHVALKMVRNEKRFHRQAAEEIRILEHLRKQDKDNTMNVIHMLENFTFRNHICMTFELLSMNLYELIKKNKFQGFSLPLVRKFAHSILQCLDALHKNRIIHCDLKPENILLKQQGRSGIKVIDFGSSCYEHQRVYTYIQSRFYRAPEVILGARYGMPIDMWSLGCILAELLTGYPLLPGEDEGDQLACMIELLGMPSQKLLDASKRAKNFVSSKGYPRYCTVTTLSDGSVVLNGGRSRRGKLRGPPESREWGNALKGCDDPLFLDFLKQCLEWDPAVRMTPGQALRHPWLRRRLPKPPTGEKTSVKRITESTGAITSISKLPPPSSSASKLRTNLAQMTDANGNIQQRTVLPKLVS

[7] = molecular target: T2, Dual specificity tyrosine-phosphorylation-regulated kinase 4 (Homo sapiens, UniProt Q9NR20)
T2 sequence (Q9NR20 whole entry): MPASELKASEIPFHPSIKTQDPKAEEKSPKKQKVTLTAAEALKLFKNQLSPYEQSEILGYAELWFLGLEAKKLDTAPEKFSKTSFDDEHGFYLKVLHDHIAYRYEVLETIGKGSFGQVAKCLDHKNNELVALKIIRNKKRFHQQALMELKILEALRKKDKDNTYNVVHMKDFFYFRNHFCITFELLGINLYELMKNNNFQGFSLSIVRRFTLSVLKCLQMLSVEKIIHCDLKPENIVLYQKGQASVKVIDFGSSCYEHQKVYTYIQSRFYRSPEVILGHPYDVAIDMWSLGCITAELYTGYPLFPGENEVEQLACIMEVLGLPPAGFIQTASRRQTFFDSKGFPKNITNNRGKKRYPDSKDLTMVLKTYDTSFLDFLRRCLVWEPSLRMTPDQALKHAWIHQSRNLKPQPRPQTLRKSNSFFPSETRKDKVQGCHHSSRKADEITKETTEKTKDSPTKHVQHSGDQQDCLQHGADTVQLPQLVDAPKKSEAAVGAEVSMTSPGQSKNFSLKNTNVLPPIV

[8] = molecular target: Glycogen synthase kinase-3 beta (Homo sapiens, UniProt P49841); type: cell-based, Sf9
Chain of Glycogen synthase kinase-3 beta (P49841 whole entry): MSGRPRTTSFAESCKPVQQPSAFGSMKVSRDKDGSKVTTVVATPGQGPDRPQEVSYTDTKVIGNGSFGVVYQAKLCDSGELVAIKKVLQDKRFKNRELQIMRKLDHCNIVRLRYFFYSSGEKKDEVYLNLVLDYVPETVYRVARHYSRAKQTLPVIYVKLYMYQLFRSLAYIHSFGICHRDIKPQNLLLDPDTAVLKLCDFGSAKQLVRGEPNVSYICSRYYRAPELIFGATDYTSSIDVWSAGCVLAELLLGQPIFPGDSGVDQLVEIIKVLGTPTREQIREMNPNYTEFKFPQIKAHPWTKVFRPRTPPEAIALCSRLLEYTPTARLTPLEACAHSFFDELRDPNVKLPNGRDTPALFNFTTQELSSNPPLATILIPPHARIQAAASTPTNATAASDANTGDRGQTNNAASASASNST

[9] = molecular target: Dual specificity tyrosine-phosphorylation-regulated kinase 1A (Homo sapiens, UniProt Q13627)
[10] = molecular target: T3, Dual specificity tyrosine-phosphorylation-regulated kinase 3 (Homo sapiens, UniProt O43781)
T3 sequence (O43781 whole entry): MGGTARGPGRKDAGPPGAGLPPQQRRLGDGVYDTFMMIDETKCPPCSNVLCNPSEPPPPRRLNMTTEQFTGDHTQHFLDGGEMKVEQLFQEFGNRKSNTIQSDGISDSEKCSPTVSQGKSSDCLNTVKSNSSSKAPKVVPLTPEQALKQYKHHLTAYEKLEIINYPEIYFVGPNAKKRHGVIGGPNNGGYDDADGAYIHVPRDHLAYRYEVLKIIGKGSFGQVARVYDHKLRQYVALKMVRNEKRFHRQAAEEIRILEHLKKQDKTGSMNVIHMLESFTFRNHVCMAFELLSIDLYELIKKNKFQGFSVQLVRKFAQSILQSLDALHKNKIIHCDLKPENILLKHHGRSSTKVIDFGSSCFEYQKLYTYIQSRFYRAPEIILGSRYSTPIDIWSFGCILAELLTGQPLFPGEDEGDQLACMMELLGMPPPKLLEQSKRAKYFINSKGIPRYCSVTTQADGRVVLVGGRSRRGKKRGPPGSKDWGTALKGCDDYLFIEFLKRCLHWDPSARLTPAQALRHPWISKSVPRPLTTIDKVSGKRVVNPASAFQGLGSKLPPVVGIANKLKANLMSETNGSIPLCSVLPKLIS

[11] = molecular target: Casein kinase I isoform epsilon (Homo sapiens, UniProt P49674)
Chain of Casein kinase I isoform epsilon (P49674 whole entry, canonical isoform): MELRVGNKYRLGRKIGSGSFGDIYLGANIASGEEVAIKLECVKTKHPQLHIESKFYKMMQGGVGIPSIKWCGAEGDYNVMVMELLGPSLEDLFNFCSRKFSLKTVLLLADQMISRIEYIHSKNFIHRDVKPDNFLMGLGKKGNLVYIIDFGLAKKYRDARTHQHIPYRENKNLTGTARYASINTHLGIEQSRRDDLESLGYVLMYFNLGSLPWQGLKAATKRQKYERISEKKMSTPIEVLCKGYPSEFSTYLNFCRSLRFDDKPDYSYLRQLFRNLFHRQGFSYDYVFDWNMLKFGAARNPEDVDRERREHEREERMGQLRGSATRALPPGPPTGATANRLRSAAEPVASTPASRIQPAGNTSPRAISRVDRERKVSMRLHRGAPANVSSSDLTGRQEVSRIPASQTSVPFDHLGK

Chain of Dual specificity protein kinase CLK1 (P49759 whole entry): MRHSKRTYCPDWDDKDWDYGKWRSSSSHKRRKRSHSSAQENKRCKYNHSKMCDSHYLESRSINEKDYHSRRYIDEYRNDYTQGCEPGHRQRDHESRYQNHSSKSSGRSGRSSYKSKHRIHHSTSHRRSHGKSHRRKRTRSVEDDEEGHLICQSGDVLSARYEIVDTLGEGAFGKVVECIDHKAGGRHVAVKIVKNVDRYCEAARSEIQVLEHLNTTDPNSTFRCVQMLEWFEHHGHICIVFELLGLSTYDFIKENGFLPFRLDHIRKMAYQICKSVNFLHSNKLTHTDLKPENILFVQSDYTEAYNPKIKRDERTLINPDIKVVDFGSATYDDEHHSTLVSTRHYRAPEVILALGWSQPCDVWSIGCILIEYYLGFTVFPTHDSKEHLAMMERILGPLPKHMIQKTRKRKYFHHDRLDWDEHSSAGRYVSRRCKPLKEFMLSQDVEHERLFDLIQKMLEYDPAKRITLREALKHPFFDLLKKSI
Chain of Cyclin-dependent kinase 5/CDK5 activator 1 (Q00535 whole entry): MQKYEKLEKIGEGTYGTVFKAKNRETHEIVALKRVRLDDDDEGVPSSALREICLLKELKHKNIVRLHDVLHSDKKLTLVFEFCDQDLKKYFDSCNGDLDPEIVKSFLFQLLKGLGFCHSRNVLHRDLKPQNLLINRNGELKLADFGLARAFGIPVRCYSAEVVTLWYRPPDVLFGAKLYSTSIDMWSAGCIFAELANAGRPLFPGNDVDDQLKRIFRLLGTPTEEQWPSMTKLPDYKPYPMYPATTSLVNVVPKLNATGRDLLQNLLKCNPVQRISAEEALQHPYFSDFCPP
Chain of Cyclin-dependent kinase 5/CDK5 activator 1 (Q15078 whole entry, further chain): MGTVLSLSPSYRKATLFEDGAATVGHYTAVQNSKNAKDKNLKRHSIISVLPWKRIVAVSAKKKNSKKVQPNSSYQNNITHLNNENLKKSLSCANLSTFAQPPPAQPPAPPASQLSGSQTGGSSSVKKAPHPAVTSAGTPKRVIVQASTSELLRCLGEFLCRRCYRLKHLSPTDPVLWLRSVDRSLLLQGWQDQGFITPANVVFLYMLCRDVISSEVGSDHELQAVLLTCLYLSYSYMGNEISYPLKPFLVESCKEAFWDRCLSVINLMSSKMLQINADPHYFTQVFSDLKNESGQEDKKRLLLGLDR
Chain of Dual specificity protein kinase CLK2 (P49760 whole entry): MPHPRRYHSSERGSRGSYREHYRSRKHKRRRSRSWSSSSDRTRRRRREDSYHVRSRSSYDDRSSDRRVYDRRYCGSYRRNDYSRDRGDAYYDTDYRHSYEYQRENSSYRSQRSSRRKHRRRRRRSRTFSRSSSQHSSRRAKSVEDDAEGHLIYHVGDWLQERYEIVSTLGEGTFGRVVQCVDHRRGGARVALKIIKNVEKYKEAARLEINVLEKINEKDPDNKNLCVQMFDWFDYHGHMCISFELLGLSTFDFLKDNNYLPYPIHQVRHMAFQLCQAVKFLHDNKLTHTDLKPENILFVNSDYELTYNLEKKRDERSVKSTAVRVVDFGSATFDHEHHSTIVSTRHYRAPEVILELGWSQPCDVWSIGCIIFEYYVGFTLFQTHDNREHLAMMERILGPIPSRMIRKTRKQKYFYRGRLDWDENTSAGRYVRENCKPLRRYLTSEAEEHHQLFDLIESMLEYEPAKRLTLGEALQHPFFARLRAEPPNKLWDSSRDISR
Chain of Dual specificity protein kinase CLK3 (P49761 whole entry): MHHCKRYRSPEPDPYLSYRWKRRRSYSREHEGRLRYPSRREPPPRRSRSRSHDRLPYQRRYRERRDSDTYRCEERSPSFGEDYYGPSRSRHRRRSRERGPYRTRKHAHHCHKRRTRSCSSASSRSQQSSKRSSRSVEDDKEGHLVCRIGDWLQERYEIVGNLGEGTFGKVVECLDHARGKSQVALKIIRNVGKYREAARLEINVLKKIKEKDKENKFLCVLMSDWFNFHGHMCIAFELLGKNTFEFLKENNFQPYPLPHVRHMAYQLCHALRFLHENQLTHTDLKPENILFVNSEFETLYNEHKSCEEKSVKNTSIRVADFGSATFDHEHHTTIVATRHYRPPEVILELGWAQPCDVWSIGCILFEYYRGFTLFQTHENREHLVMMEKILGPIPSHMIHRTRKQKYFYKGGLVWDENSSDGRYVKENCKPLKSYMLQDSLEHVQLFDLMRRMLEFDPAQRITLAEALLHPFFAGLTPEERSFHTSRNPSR

IC50 [1] [nM]	IC50 [2] [nM]	IC50 [3] [nM]	IC50 [4] [nM]	IC50 [5] [nM]	IC50 [6] [nM]	IC50 [7] [nM]	IC50 [8] [nM]	IC50 [9] [nM]	IC50 [10] [nM]	IC50 [11] [nM]	Structure (SMILES)
> 10000	31	507	1550	8	2180	865	> 10000	98	–	–	O=C1NC(NC2CCCCCC2)=N/C1=C\c1ccc2[nH]cnc2c1
> 10000	852	5580	8820	392	> 10000	> 10000	> 10000	–	> 10000	–	O=C1NC(NC2CCCCC2)=N/C1=C\c1ccc2nnsc2c1
> 10000	104	1250	5380	52	3390	2990	> 10000	237	–	> 10000	O=C1NC(NC2CCCCC2)=N/C1=C\c1ccc2c(c1)CCO2
> 10000	67	2180	1410	55	1500	3020	> 10000	–	1030	> 10000	Cn1cc2cc(/C=C3\N=C(NC4CCCCCC4)NC3=O)ccc2n1
8700	17	102	804	–	1490	1040	> 10000	67	758	> 10000	Cn1cnc2ccc(/C=C3\N=C(NC4CCCCCC4)NC3=O)cc21
> 10000	–	20	920	3	513	699	6030	3	302	> 10000	COC(=O)[C@@H](NC1=N/C(=C\c2ccc3ncsc3c2)C(=O)N1)C(C)O (some centres undefined)
> 10000	13	113	698	5	–	–	2220	–	710	> 10000	O=C1NC(Nc2ccccc2)=N/C1=C\c1ccc2ncsc2c1
> 10000	4	–	> 10000	–	–	4300	> 10000	2	40	> 10000	Cn1cc2cc(/C=C3\N=C(NC45CC6CC(CC(C6)C4)C5)NC3=O)ccc2n1
> 10000	20	–	1080	8	1470	1110	> 10000	93	–	–	Cn1cnc2ccc(/C=C3\N=C(NC4CCCCC4)NC3=O)cc21
> 10000	951	6330	4530	–	3700	> 10000	> 10000	570	4130	> 10000	Cn1cc2cc(/C=C3\N=C(NC4CCCCC4)NC3=O)ccc2n1
> 10000	2510	7770	1710	649	2540	> 10000	> 10000	141	–	> 10000	Cn1ncc2cc(/C=C3\N=C(NC4CCCCC4)NC3=O)ccc21
–	23	35	800	16	–	–	1200	–	120	–	CN1CCN(c2ccc(NC3=N/C(=C\c4ccc5c(c4)OCO5)C(=O)N3)cc2)CC1
> 10000	5	2	7570	2	51	218	> 10000	2	–	–	O=C1NC(NC23CC4CC(CC(C4)C2)C3)=N/C1=C\c1ccc2[nH]cnc2c1
> 10000	24	1460	> 10000	9	> 10000	4890	> 10000	–	4170	> 10000	O=C1NC(NC2CCCCCC2)=N/C1=C\c1ccc2c(c1)CCO2
> 10000	> 10000	> 10000	> 10000	8170	> 10000	–	> 10000	–	> 10000	> 10000	O=C1NC(NC2CCCCCC2)=N/C1=C\c1ccc2scnc2c1
> 10000	220	2230	5700	86	946	2670	5190	–	5430	> 10000	CC(C)C[C@H](COCc1ccccc1)NC1=N/C(=C\c2ccc3ncsc3c2)C(=O)N1
> 10000	541	2350	794	–	–	> 10000	> 10000	263	–	> 10000	O=C1NC(NC2CCCCC2)=N/C1=C\c1ccc2[nH]ncc2c1
> 10000	139	725	266	112	1870	–	3950	33	–	> 10000	O=C1NC(NC2CCCCCC2)=N/C1=C\c1ccc2[nH]ncc2c1
> 10000	142	4000	2220	125	363	1630	> 10000	–	307	> 10000	Cn1ncc2cc(/C=C3\N=C(NC45CC6CC(CC(C6)C4)C5)NC3=O)ccc21
> 10000	13	110	413	4	145	987	2680	–	–	> 10000	CCOC[C@@H](CC(C)C)NC1=N/C(=C\c2ccc3ncsc3c2)C(=O)N1
> 10000	17	121	211	5	125	1380	3600	–	–	> 10000	CC(C)C[C@H](COC1CC1)NC1=N/C(=C\c2ccc3ncsc3c2)C(=O)N1
> 10000	34	124	2870	37	> 10000	> 10000	> 10000	–	> 10000	–	O=C1NC(NCc2ccccc2OC(F)(F)F)=N/C1=C\c1ccc2ncsc2c1
6710	21	–	787	12	627	663	7060	–	482	9750	O=C1NC(NC2CCCCC2)=N/C1=C\c1ccc2ncsc2c1
